The values below come from US5661147A, “Imidazoquinazoline derivatives” (Kyowa Hakko Kogyo Co., Ltd., priority 1993, dated 1997).

Counter-ions that a name gives are not always drawn. Where only a bound is given, the exact number is not on record here.

In experiment [1] the target is T1, PDE V (cGMP-specific PDE) (Canis lupus familiaris, UniProt O77746).
T1 construct: purified from canine tracheal smooth muscle; from tissue; host or cells: canine tracheal smooth muscle
The experiment can be described thus: Inhibitory activity on PDE V purified from canine tracheal smooth muscle (Test Example 1). The format is biochemical. The settings on record: 1.0 μM [3H]cGMP substrate; for inhibition at 0.001 µM: 1 nM, read-out: PDE Inhibitory activity, PDE V, Percent inhibition. The method, then: The inhibitory activity on PDE derived from canine tracheal smooth muscle
The measurement of the PDE I activity was carried out using 1.0 μM [^3 H]cAMP as a substrate in the presence of 0.4 mM CaCl2 and 20 units/ml calmodulin. The measurement of the PDE II activity was carried out using 1.0 μM [^3 H]cAMP as a substrate in the presence of 10 μM cGMP. The measurement of the PDE III, IV and V activity was carried out using, as a substrate, 1.0 μM [^3 H]cAMP, 1.0 μM [^3 H]cAMP and 1.0 μM [3H]cGMP, respectively. […] Respective reactions were carried out in a buffer having the following composition:
50 mM N,N-bis(2-hydroxyethyl)-2-aminoethanesulfonic acid (pH 7.2), 1 mM MgCl2, 0.1 mg/ml soybean trypsin inhibitor.
(§1) The reaction was started by addition of an enzyme and stopped by addition of hydrochloric acid after 10 to 30 minutes at 30° C. Thereafter, sodium hydroxide was added to neutralize and 5'-AMP or 5'-GMP was converted into adenosine or guanosine using 5'-nucleotidase. The reaction solution was subjected to DEAE-Sephadex A-25 column. [^3 H]Adenosine [^3 H]guanosine was eluted with distilled water and the radioactivity was measured with a liquid scintillation counter.

The target of experiment [2] is T2, PDE III (cAMP-specific PDE which is inhibited by cGMP) (Canis lupus familiaris, UniProt A0A8I3NYE0).
T2 construct: purified from canine tracheal smooth muscle; from tissue; host or cells: canine tracheal smooth muscle
T2 sequence (A0A8I3NYE0 1-1135): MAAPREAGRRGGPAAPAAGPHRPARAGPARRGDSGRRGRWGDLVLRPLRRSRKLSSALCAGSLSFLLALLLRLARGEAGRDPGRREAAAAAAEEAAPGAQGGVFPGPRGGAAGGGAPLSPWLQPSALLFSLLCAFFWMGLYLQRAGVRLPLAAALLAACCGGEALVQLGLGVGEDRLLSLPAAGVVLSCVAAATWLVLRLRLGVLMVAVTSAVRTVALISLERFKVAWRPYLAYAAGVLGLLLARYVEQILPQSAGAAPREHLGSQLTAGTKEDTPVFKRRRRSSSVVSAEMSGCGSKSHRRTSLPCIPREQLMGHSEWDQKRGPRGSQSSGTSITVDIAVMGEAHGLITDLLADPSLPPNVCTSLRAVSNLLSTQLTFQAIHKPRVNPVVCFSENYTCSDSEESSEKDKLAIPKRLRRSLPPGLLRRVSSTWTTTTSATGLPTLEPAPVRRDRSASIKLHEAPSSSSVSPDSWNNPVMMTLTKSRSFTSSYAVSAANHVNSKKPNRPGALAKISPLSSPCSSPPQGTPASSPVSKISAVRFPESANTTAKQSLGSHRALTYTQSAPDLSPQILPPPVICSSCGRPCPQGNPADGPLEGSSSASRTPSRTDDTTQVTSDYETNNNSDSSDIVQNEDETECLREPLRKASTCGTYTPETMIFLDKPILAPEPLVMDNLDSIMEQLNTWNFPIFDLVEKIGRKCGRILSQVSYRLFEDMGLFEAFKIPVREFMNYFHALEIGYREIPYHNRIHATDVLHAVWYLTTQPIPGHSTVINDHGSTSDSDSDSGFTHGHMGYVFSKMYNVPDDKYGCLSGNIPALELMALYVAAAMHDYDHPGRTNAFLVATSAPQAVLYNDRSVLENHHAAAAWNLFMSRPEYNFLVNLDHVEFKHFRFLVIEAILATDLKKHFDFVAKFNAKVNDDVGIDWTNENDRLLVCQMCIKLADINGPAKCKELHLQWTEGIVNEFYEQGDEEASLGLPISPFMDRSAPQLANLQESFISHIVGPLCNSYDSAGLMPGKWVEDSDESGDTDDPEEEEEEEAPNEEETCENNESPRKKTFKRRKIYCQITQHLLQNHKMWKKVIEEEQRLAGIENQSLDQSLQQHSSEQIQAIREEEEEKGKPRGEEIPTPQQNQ
The experiment can be described thus: Inhibitory activity on PDE III purified from canine tracheal smooth muscle (Test Example 1). The format is biochemical. The settings on record: 1.0 μM [3H]cAMP substrate, 10 μM rolipram added; for inhibition at 1 µM: read-out: PDE Inhibitory activity, PDE III, Percent inhibition. The method, then: as §1

In experiment [3] the test system is PDE I (PDE which is activated by calmodulin). The experiment can be described thus: Inhibitory activity on PDE I purified from canine tracheal smooth muscle (Test Example 1). The class given is biochemical. The settings on record: 10 μM; 1.0 μM [3H]cAMP substrate, CaCl2 and calmodulin. The procedure: as §1
The test system of experiment [4] is PDE II (PDE which is activated by cGMP). The experiment can be described thus: Inhibitory activity on PDE II purified from canine tracheal smooth muscle (Test Example 1). The format is biochemical. The settings on record: 10 μM; 1.0 μM [3H]cAMP substrate, 10 μM cGMP. The method, then: as §1
In experiment [5] the test system is PDE IV (cAMP-specific PDE). The experiment in a line: Inhibitory activity on PDE IV purified from canine tracheal smooth muscle (Test Example 1). The settings on record: 1.0 μM [3H]cAMP substrate, 25 μM cGMP added. The class given is biochemical. The procedure:
as §1

Experiment [6] is described as follows: Hypotensive effects in guinea pigs (Test Example 2). The format is in vivo, guinea pig. The settings on record: anesthetized guinea pigs, in DMSO. The method, then:
Hypotensive effects in guinea pigs.
After a guinea pig, anesthetized with pentobarbital, was fixed in the supine position, a cannula was inserted into trachea and guinea pig was artificially ventilated under the conditions of a tidal volume of […] and 60 breathes/min. The carotid artery and the jugular vein were cannulated for measuring arterial blood pressure and administering drugs, respectively. Drugs were dissolved in DMSO (50 μl) and administered intravenously using the above cannula.
The maximum percent values from the pre-drug level (100%) in mean blood pressure (mBP) were obtained.

In general, inhibition refers to the change of the read-out against control, counted positive when it falls. As to `CCn1c(=O)[nH]c2cc3c(NCc4cccc(OC)c4)ncnc3cc21` [Compound 15, 3-ethyl-8-(3-methoxybenzylamino)-2,3-dihydro-1H-imidazo[4,5-g]quinazoline-2-one hydrochloride], in experiment [1], the inhibition at 0.001 µM stood at 67%. In experiment [2], the inhibition at 1 µM came to 50%.
The corresponding values for `CCn1c(=O)[nH]c2cc3c(NCc4ccc(F)c(F)c4)ncnc3cc21` [Compound 20, 8-(3,4-difluorobenzylamino)-3-ethyl-2,3-dihydro-1H-imidazo[4,5-g]quinazoline-2-one hydrochloride] are 69% and 47%.
By IC50 is commonly meant the concentration that inhibits the measured activity by half. Turning to `CCn1c(=O)[nH]c2cc3c(NCC4CCCO4)ncnc3cc21` (stereo not drawn) [Compound 30, 3-ethyl-8-(2,3,4,5-tetrahydro-2-furylmethylamino)^- 2,3-dihydro-1H-imidazo[4,5-g]quinazoline-2-one hydrochloride], the IC50 in experiment [1] was 0.18 nM; in experiment [5], above 10000 nM; in experiment [2], 1100 nM. Further, in experiment [3], the “PDE Inhibitory activity, PDE I, Percent inhibition” value amounted to 58%. In experiment [4], the “PDE Inhibitory activity, PDE II, Percent inhibition” value came out at 61%.
Turning to `CCn1c(=S)[nH]c2cc3c(NCc4ccccc4)ncnc3cc21` [Compound 39, 8-benzylamino-3-ethyl-2,3-dihydro-1H-imidazo[4,5-g]quinazoline-2-thione], the “maximum percent values from the pre-drug level (100%) in mean blood pressure (mBP)” value in experiment [6] (1 μg/kg i.v.) is 100.20%; in experiment [6] (3 μg/kg i.v.), 80.00%; in experiment [6] (10 μg/kg i.v.), 72.30%; in experiment [6] (30 μg/kg i.v.), 51.20%.
`CCCn1c(=S)[nH]c2cc3c(NCc4ccccc4)ncnc3cc21` [Compound 42, 8-benzylamino-3-(n-propyl)-2,3-dihydro-1H-imidazo[4,5-g]quinazoline-2-thione]: in experiment [1], the inhibition at 0.001 µM was determined as 94%. For the same molecule, the inhibition at 1 µM in experiment [2] was 27%.
For the molecule `CCn1c(=S)[nH]c2cc3c(NCc4ccncc4)ncnc3cc21.Cl.Cl` [Compound 47, 3-ethyl-8-(4-pyridylmethylamino)-2,3-dihydro-1H-imidazo[4,5-g]quinazoline-2-thione dihydrochloride], in experiment [1], the inhibition at 0.001 µM was found to be 91%. In experiment [3], the “PDE Inhibitory activity, PDE I, Percent inhibition” value was found to be 12%. In addition, the “PDE Inhibitory activity, PDE II, Percent inhibition” value in experiment [4] stood at 19%. Moreover, in experiment [5] (10 μM), the “PDE Inhibitory activity, PDE IV, Percent inhibition” value was found to be 20%. In addition, in experiment [2], the inhibition at 1 µM was 60%.
With `CCn1c(=S)[nH]c2cc3c(NCc4cccc(OC)c4)ncnc3cc21` [Compound 51, 3-ethyl-8-(3-methoxybenzylamino)-2,3-dihydro-1H-imidazo[4,5-g]quinazoline-3-thione hydrochloride], the inhibition at 0.001 µM in experiment [1] was 97%. Moreover, the inhibition at 1 µM in experiment [2] was found to be 48%.
The corresponding values for `CCn1c(=S)[nH]c2cc3c(NCc4cccc(C(F)(F)F)c4)ncnc3cc21` [Compound 54, 3-ethyl-8-(3-trifluoromethylbenzylamino)-2,3-dihydro-1H-imidazo[4,5-g]quinazoline-2-thione hydrochloride] are 96% and 32%.
